According to patent EP3199156A1, “USE OF GLYCINE TRANSPORTER 1 ANTAGONISTS AS CENTRAL NERVOUS ANALGESICS” (Heinrich Heine Universität Düsseldorf, priority 2016, dated 2017):
Entries after “also recorded” stand apart in the source; their conditions may differ.

How the values were obtained:
[1] = tested on: Wistar Ratte; assay: Mechanical allodynia (von Frey filament) after chronic constriction injury (CCI) of the left sciatic nerve, rat; format: in vivo; conditions: rats, day 10-12 after CCI
Method: (§1) Zum Beweis der Effektivität der Bitopertin-Applikation zur Behandlung neuropathischer Schmerzen wurde eine operative Ligatur des linken N. ischiadicus (Chronic Constriction Injury; CCI) der Wistar Ratte sowie C57BL/6-Maus induziert. Am Tag 10-12 nach CCI erhielten 2 Gruppen der Ratten randomisiert und verblindet eine einmalige orale Dosierungen von Bitopertin (0,3; 1 mg/kg), während die Kontrollgruppen Vehikel erhielten. Mechanische Allodynie wurde mittels eines halbautomatischen Frey Filaments (Ugo Basile) vor und 10-12 Tage nach CCI, sowie 1, 2, 4, 8 und 24 h nach Applikation von Bitopertin bzw. Vehikel überprüft. Zusätzlich wurde die Wirkung von Bitopertin 10 Tage nach CCI in Mäusen bei kontinuierlicher Langzeitapplikation mittels subkutan implantierter, osmotischer Mini-Infusionspumpen (2 mg/kg/Tag) über 27 Tage untersucht. Neuromotorische Wirkungen von Bitopertin in Mäusen wurden im Open-Field-Test 1 h nach Injektion bzw. bei kontinuierlicher Applikation nach 12 Tagen analysiert. Statistik: Alle Daten sind dargestellt als Mittelwerte ± Standardfehler; ANOVA und Bonferroni post hoc Test; Signifikanzniveau p<0,05.
In Figur 3 ist der Effekt des GlyT1-Inhibitors Bitopertin auf die mechanische Allodynie bei Nagern mit Neuropathie nach CCI dargestellt. Abbildung (A) zeigt den Effekt des GlyT1-Inhibitors Bitopertin auf die einmalige orale Applikation bei Ratten 0,3 mg/kg; n=9-11. […]

[2] = tested on: C57BL/6-Maus; assay: Mechanical allodynia (von Frey filament, withdrawal threshold) after chronic constriction injury (CCI), mouse; format: in vivo
[3] = tested on: Mäusen; conditions: in vivo
Method: as §1

In the case of `C[C@H](Oc1ccc(S(C)(=O)=O)cc1C(=O)N1CCN(c2ncc(C(F)(F)F)cc2F)CC1)C(F)(F)F` [Bitopertin], the “durch CCI induzierte mechanische Allodynie” value ([1]; single oral dose 0,3 mg/kg, effect two and four hours after administration, Figur 3 A) is reported as “Reduktion der durch CCI induzierten mechanischen Allodynie; also recorded: signifikanten Verminderung von mechanischer Allodynie”, the “durch CCI induzierte mechanische Allodynie” value ([1]; single oral dose 1 mg/kg, compared with 0,3 mg/kg, Figur 3 B) is reported as “vergleichbar ausprägten Effekten; also recorded: signifikanten Verminderung von mechanischer Allodynie” and the “Schmerzempfindlichkeit der neuropathischen Extremität (mechanische Allodynie)” value ([2]; mice after CCI, continuous subcutaneous administration 2 mg/kg/Tag by osmotic mini-pump over 27 days, effect from 7 days after start until end of therapy, Figur 3 C, 2 mg/kg) is reported as “verminderten Schmerzempfindlichkeit der neuropathischen Extremität; also recorded: signifikanten Verminderung von mechanischer Allodynie”. The “Rückzugsschwellenwerte in Antwort auf eine mechanische Stimulation der neuropathischen Extremität” value ([2]; mice, intraperitoneal 2 mg/kg versus Kochsalzlösung 0,9%, Figur 1) was “deutliche Anhebung der gemessenen Rückzugsschwellenwerte”, the “unerwünschte neuromotorische Wirkungen” value [3] was “nicht zu unerwünschten neuromotorischen Wirkungen” and the “Aktivität (Open-field Test)” value ([3]; 2 mg/kg) was “keine Veränderungen der Aktivität”. The “Wegstrecken und Aufenthaltsdauern (Open-Field-Test)” value ([3]; sc, 2 mg/kg) was “keine Unterschiede in Wegstrecken und Aufenthaltsdauern”.
